US10980777B2, “Indole derivatives as histone demethylase inhibitors” (Istituto Europeo di Oncologia S.r.l., priority 2017, dated 2021)
pIC50: −log10 of the molar value. Structures can show the parent of a compound that is named as a salt.

Tests used:
[1] = system: Human leukemia MV4-11 cells; test: Cell growth, CellTiter-Fluor cell viability assay, MV4-11; format: cell-based; settings: 48 h incubation, read-out: IC50 against human leukemia MV4-11 cells
From the text: (§1) CellTiter-Flor® (Promega) is as a nonlytic, single-reagent-addition fluorescence assay that measures the relative number of living cells in a culture population after experimental manipulation. The CellTiter-Fluor™ Cell Viability Assay measures the conserved and constitutive protease activity within live cells and therefore acts as a marker for cell viability.
(§2) Human leukemia MV4-11 cells, (obtained from the Deutsche Sammlung von Mikroorganismen und Zellkulturen, ACC 102) or NB4 cells, (obtained from the Deutsche Sammlung von Mikroorganismen und Zellkulturen) in exponential growth, were incubated for 48 h with different concentrations of the inhibitors. After 48 h a volume of CellTiter-Fluor® Reagent equal to one fifth of volume of cell culture medium was added. The content was mixed and incubates for at least 90 min at 37° C. degree to obtain a stable signal. The fluorescence was recorded using an excitation wavelength of 360 nm and an emission at 535 nm. The IC50 was calculated using GraphPad Software.

human leukemia NB4 cells = test: Cell growth, CellTiter-Fluor cell viability assay, NB4; format: cell-based; settings: NB-4, 48 h incubation, read-out: IC50 against human leukemia NB4 cells
From the text: as §1, §2

[2] = biological target: T1, human recombinant KDM1A/CoREST protein (Homo sapiens, UniProt O60341); test: Assay of enzyme inhibition of KDM1A (LSD1), TR-FRET; format: biochemical; settings: 0.25 nM KDM1A/CoREST, 50 nM H3K4 monomethylated peptide, 20 min at RT; read-out: IC50, KDM1A (LSD1) enzyme inhibition
T1 construct: made in house; host or cells: E. coli
Description: 2.1 Assay of Enzyme Inhibition of KDM1A (LSD1)
The KDM1A inhibiting activity was determined using a TR-FRET assay (time resolved fluorescence resonance energy transfer, Lance® Ultra Demethylase technology (Perkin Elmer, Waltham, Mass., USA)), which comprises a Europium chelate donor dye (TRF0404, Perkin Elmer, Waltham, Mass., USA) together with ULight™ (TR0102, Perkin Elmer, Waltham, Mass., USA), a small molecular weight acceptor dye with a red-shifted fluorescent emission, and a biotinylated 21 amino acids histone H3-derived monomethylated peptide (H3K4me) [Lys(Me1)4]-Histone H3 (1-21)-GGK(biotin), (64355, Anaspec, Fremont, Calif., USA) as substrate. The intensity of the light emission is proportional to the level of biotinylated reaction product. The complex of human recombinant KDM1A/CoREST protein was produced in E. coli as separate proteins and co-purified as previously described.(Forneris, F. et al. Trends Biochem, Sci, 2008, 33, 181-189) (Forneris, F. et al. J. Biol. Chem. 2007, 282, 20070-20074).
Demethylase Assay conditions: 0.25 nM KDM1A/CoREST protein and compound in 100% DMSO were added in a final volume of 48 μL assay buffer (Tris HCl 50 mM pH 8.8, NaCl 50 mM, DTT 1 mM, Tween-20 0.01% (by volume)) to each well of a 96 well half area flat bottom white plate (3693 Costar, Sigma-Aldrich, St. Louis, M, USA).
Demethylase reaction was started by the addition of 50 nM histone H3K4 monomethylated. After 20 min at RT, 300 μM tranylcypromine (P8511-1G, Sigma-Aldrich, St. Louis, Mo. 63103) was added to stop the reaction.
Detection step conditions: 10 μL of the assay mixture was transferred from the original plate into a 384 well white plate (6007290 OptiPlate™, Perkin Elmer, Waltham, Mass., USA) and 10 μL of the detection Mix containing 2 nM Eu-antibody and 10 nM U-Light-Streptavidin in 1× Lance Detection Buffer (TRF0404, TR0102, CR97100, Perkin Elmer, Waltham, Mass., USA). The resulting mixture was incubated in the dark for 1 h at RT. Then, TR-FRET signal was read by a fluorimeter (Infinite® F200, Tecan, Männedorf, Switzerland) (Excitation 320 nm, Emission 665 nm and 620 nm, delay time 50 μs, window time 100 μs).
IC50 determination: The inhibitor concentrations ranged from 0.025 to 500 μM (serial 1:3 dilutions). The IC50 was calculated using GraphPad Software.

## Cn1c(C(=O)c2cn(CCOc3ccc(OC4CCNCC4)cc3)c3ccccc23)cc2sccc21 [Compound 17, (4-methylthieno[3,2-b]pyrrol-5-yl)-[1-[2-[4-(4-piperidyloxy)phenoxy]ethyl]indol-3-yl]methanone hydrochloride]
[1]
  pIC50: > 5.00
Human leukemia NB4 cells
  pIC50: > 5.00
[2]
  pIC50: > 6.30
